From patent US6251897A, “6-phenyltetrahydro-1,3-oxazin-2-one derivative and pharmaceutical composition containing the same” (Nikken Chemicals Co., LTD, priority 1996, dated 2001)

System: Type IV PDE
Test: PDE inhibitory activity, type IV isozyme (3H-cAMP hydrolysis)
Type: biochemical
Details: partially purified from rat neutrophils, 30° C., 30 minutes
Experimental: Type I, III, IV, and V PDE isozymes were prepared to study the PDE inhibitory activities and selectivities with the compound of the invention [Trends Pharmacol. Sci., 12, 19-27 (1992)]. Type I PDE was purchased from Sigma Corp. Type III, IV, and V PDE isozymes were partially purified from rats platelets (Type III and V) or neutrophils (Type IV). Each enzyme source was homogenized in a buffer (pH 6.5) containing 20 mM bisTris, 2 mM EDTA (ethylenediamine tetraacetate), 0.1 mM PMSF (phenylmethylsulfonyl fluoride), 5 mM 2-mercaptoethanol, 0.001 mM pepstatin, and 0.01 mM leupeptin and was centrifuged at 30,000×G for 30 minutes to obtain a supernatant, which was applied to an ion exchange column (Q-sepharose First Flow, Pharmacia Corp.) and was eluted with 0 to 1M sodium acetate. Partially purified isozymes were identified by observing the effects of conventional inhibitors.
Each PDE isozyme and the test compound dissolved in DMSO (dimethyl sulfoxide) were added to 50 mM Tris-HCl buffer containing 5 mM magnesium chloride. ^3 H-cAMP (for type III and IV PDE) or ^3 H-cGMP (for type I and V PDE) were added as substrates and were reacted at 30° C. for 30 minutes. The reaction was terminated by placing the test tube in boiling water of 100° C. for 5 minutes. The nucleotides formed by PDE were broken down by 5'-nucleotidase to ^3 H-adenosine or ^3 H-guanosine. The unreacted substrate and reaction product were separated through an ion-exchange column (QAE sephadex, Pharmacia Corp.) The eluted ^3 H-nucleoside was measured for its radioactivity by a liquid scintillation counter. The inhibiting activities of the compound of the present invention are shown by the IC50 value (M). Further, the inhibitory activities of the test samples against Type I, III, and V are 1/10 or less than that against type IV.

SMILES	IC50
COc1ccc(C2OC(=O)NCC2(C)C)cc1OC1CCCC1 (centres unmarked) [Compound No. 85, 6-(3-cyclopentyloxy-4-methoxyphenyl)-5,5-dimethyl-3,4,5,6-tetrahydro-2H-1,3-oxazin-2-one]	780 nM
CCCCOc1cc(C2CCNC(=O)O2)ccc1OC (centres unmarked) [Compound No. 3, 6-(3-butoxy-4-methoxyphenyl)-3,4,5,6-tetrahydro-2H-1,3-oxazin-2-one]	6800 nM
COc1ccc(C2CCN(Cc3c(C)c4ccccc4n3C(C)=O)C(=O)O2)cc1OC1CCCC1 (centres unmarked) [Compound No. 34, 3-(1-acetyl-3-methyl-2-indolylmethyl)-6-(3-cyclopentyloxy-4-methoxyphenyl)-3,4,5,6-tetrahydro-2H-1,3-oxazin-2-one]	860 nM
COc1ccc(C2CCNC(=O)O2)cc1OCCOCC1CC1 (centres unmarked) [Compound No. 90, 6-[3-[2-(cyclopropylmethyloxy)ethoxy]-4-methoxyphenyl]-3,4,5,6-tetrahydro-2H-1,3-oxazin-2-one]	1900 nM
CCCCOc1cc(C2(C)CCN(C)C(=O)O2)ccc1OC (centres unmarked) [Compound No. 54, 6-(3-butoxy-4-methoxyphenyl)-3,6-dimethyl-3,4,5,6-tetrahydro-2H-1,3-oxazin-2-one]	2000 nM
CCC(CC)COc1cc(C2CCN(C)C(=O)O2)ccc1OC (centres unmarked) [Compound No. 70, 6-[3-(2-ethylbutoxy)-4-methoxyphenyl]-3-methyl-3,4,5,6-tetrahydro-2H-1,3-oxazin-2-one]	3500 nM
COc1ccc(C2CCN(Cc3ccc4ccccc4c3)C(=O)O2)cc1OC1CCCC1 (centres unmarked) [Compound No. 15, 6-(3-cyclopentyloxy-4-methoxyphenyl)-3-(2-naphthylmethyl)-3,4,5,6-tetrahydro-2H-1,3-oxazin-2-one]	980 nM
COc1ccc(C2CCN(C)C(=O)O2)cc1OCC1CCCC1 (centres unmarked) [Compound No. 77, 6-(3-cyclopentylmethyloxy-4-methoxyphenyl)-3-methyl-3,4,5,6-tetrahydro-2H-1,3-oxazin-2-one]	3300 nM
COc1ccc(C2(c3nccs3)CCNC(=O)O2)cc1OC (centres unmarked) [Compound No. 27, 6-(3,4-dimethoxyphenyl)-6-(2-thiazolyl)-3,4,5,6-tetrahydro-2H-1,3-oxazin-2-one]	21000 nM
COc1ccc(C2CCNC(=O)O2)cc1OC1CCOC1 (centres unmarked) [Compound No. 93, 6-[3-(3-tetrahydrofuryloxy)-4-methoxyphenyl]-3,4,5,6-tetrahydro-2H-1,3-oxazin-2-one]	3700 nM
COc1ccc(C2(C)CCN(C)C(=O)O2)cc1OCCc1ccccc1 (centres unmarked) [Compound No. 48, 3. 6-dimethyl-6-(4-methoxy-3-phenethyloxyphenyl)-3,4,5,6-tetrahydro-2H-1,3-oxazin-2-one]	700 nM
COc1ccc(C2CCNC(=O)O2)cc1OC1(C)CCCC1 (centres unmarked) [Compound No. 80, 6-[4-methoxy-3-(1-methylcyclopentyloxy)phenyl]-3,4,5,6-tetrahydro-2H-1,3-oxazin-2-one]	1500 nM
CCC(CC)COc1cc(C2CCNC(=O)O2)ccc1OC (centres unmarked) [Compound No. 69, 6-[3-(2-ethylbutoxy)-4-methoxyphenyl]-3,4,5,6-tetrahydro-2H-1,3-oxazin-2-one]	5000 nM
COc1ccc(C2OC(=O)N(C)CC2(C)C)cc1OC1Cc2ccccc2C1 (centres unmarked) [Compound No. 88, 6-[3-(2-indanyloxy)-4-methoxyphenyl]-3,5,5-trimethyl-3,4,5,6-tetrahydro-2H-1,3-oxazin-2-one]	190 nM
COc1ccc(C2CCN(Cc3cccc4ccccc34)C(=O)O2)cc1OC1CCCC1 (centres unmarked) [Compound No. 13, 6-(3-cyclopentyloxy-4-methoxyphenyl)-3-(1-naphthylmethyl)-3,4,5,6-tetrahydro-2H-1 3-oxazin-2-one]	1700 nM
COc1ccc(C2CCNC(=O)O2)cc1OCCCCCc1ccccc1 (centres unmarked) [Compound No. 41, 6-[4-methoxy-3-(5-phenylpentyloxy)phenyl]-3,4,5,6-tetrahydro-2H-1,3-oxazin-2-one]	730 nM
COc1ccc(C2(c3nccs3)CCNC(=O)O2)cc1OC1CCCC1 (centres unmarked) [Compound No. 31, 6-(3-cyclopentyloxy-4-methoxyphenyl)-6-(2-thiazolyl)-3,4,5,6-tetrahydro-2H-1,3-oxazin-2-one]	4600 nM
COc1ccc(C2CCN(C)C(=O)O2)cc1O[C@H]1CC[C@H](c2ccccc2)CC1 (relative stereo) [Compound No. 79, 6-[4-methoxy-3-(trans-4-phenylcyclohexyloxy)phenyl]-3-methyl-3,4,5,6-tetrahydro-2H-1,3-oxazin-2-one]	1200 nM

SMILES	IC50
COc1ccc(C2(C)CCN(C)C(=O)O2)cc1OCCCCCc1ccccc1 (centres unmarked) [Compound No. 47, 3,6-dimethyl-6-[4-methoxy-3-(5-phenylpentyloxy)phenyl]-3,4,5,6-tetrahydro-2H-1,3-oxazin-2-one]	220 nM
COc1ccc(C2CCNC(=O)O2)cc1OCCCN1CCN(Cc2ccccc2)CC1 (centres unmarked) [Compound No. 60, 6-[3-[3-(4-benzyl-1-piperazinyl)propoxy]-4-methoxyphenyl]-3,4,5,6-tetrahydro-2H-1,3-oxazin-2-one]	52000 nM
COc1ccc(C2CCN(C)C(=O)O2)cc1OCCc1ccccc1 (centres unmarked) [Compound No. 44, 6-(4-methoxy-3-phenethyloxyphenyl)-3-methyl-3,4,5,6-tetrahydro-2H-1,3-oxazin-2-one]	1500 nM
COc1ccc(C2(c3cccnc3)CCNC(=O)O2)cc1OC1CCCC1 (centres unmarked) [Compound No. 36, 6-(3-cyclopentyloxy-4-methoxyphenyl)-6-(3-pyridyl)-3,4,5,6-tetrahydro-2H-1,3-oxazin-2-one]	1600 nM
COc1ccc(C2(C)CCN(Cc3ccncc3)C(=O)O2)cc1OC1CCCC1 (centres unmarked) [Compound No. 22, 6-(3-cyclopentyloxy-4-methoxyphenyl)-6-methyl-3-(4-pyridylmethyl)-3,4,5,6-tetrahydro-2H-1,3-oxazin-2-one]	5900 nM
COc1ccc(C2CCN(C)C(=O)O2)cc1OCCCCCc1ccccc1 (centres unmarked) [Compound No. 42, 6-[4-methoxy-3-(5-phenylpentyloxy)phenyl]-3-methyl-3,4,5,6-tetrahydro-2H-1,3-oxazin-2-one]	1000 nM
COc1ccc(C2CCN(CCN3CCCCC3)C(=O)O2)cc1OC1CCCC1 (centres unmarked) [Compound No. 32, 6-(3-cyclopentyloxy-4-methoxyphenyl) -3-[2-(1-piperidyl)ethyl]-3,4,5,6-tetrahydro-2H-1,3-oxazin-2-one]	32000 nM
COc1ccc(C2OC(=O)NCC2(C)C)cc1OC1Cc2ccccc2C1 (centres unmarked) [Compound No. 87, 5,5-dimethyl-6-[3-(2-indanyloxy)-4-methoxyphenyl]-3,4,5,6-tetrahydro-2H-1,3-oxazin-2-one]	88 nM
COc1ccc(C2CCN(C)C(=O)O2)cc1OCC1(C)CC1 (centres unmarked) [Compound No. 64, 6-[4-methoxy-3-[(1-methylcyclopropyl)methyloxy]phenyl]-3-methyl-3,4,5,6-tetrahydro-2H-1,3-oxazin-2-one]	4600 nM
COc1ccc(C2CCNC(=O)O2)cc1O[C@H]1CC[C@H](c2ccccc2)CC1 (relative stereo) [Compound No. 78, 6-[4-methoxy-3-(trans-4-phenylcyclohexyloxy)phenyl]-3,4,5,6-tetrahydro-2H-1,3-oxazin-2-one]	1900 nM
CCCCN1CCC(c2ccc(OC)c(OC3CCCC3)c2)OC1=O (centres unmarked) [Compound No. 17, 3-butyl-6-(3-cyclopentyloxy-4-methoxyphenyl)-3,4,5,6-tetrahydro-2H-1,3-oxazin-2-one]	2100 nM
COc1ccc([C@@H]2OC(=O)NC[C@H]2c2ccccc2)cc1OC1CCCC1 (relative stereo) [Compound No. 92, rel-(5R,6R)-6-(3-cyclopentyloxy-4-methoxyphenyl)-5-phenyl-3,4,5,6-tetrahydro-2H-1,3-oxazin-2-one]	900 nM
COc1ccc(C2CCNC(=O)O2)cc1OCCc1ccccn1 (centres unmarked) [Compound No. 55, 6-[4-methoxy-3-[2-(2-pyridyl)ethoxy]phenyl]-3,4,5,6-tetrahydro-2H-1,3-oxazin-2-one]	1700 nM
COc1ccc(C2CCNC(=O)O2)cc1OCCc1ccc(F)cc1 (centres unmarked) [Compound No. 74, 6-[3-[2-(4-fluorophenyl)ethoxy]-4-methoxyphenyl]-3,4,5,6-tetrahydro-2H-1,3-oxazin-2-one]	1300 nM
COc1ccc([C@H]2OC(=O)NC[C@H]2c2ccccc2)cc1OC1CCCC1 (relative stereo) [Compound No. 91, rel-(5R,6S)-6-(3-cyclopentyloxy-4-methoxyphenyl)-5-phenyl-3,4,5,6-tetrahydro-2H-1,3-oxazin-2-one]	2700 nM
COc1ccc(C2CCNC(=O)O2)cc1OCCc1scnc1C (centres unmarked) [Compound No. 72, 6-[4-methoxy-3-[2-(4-methyl-5-thiazolyl)ethoxy]phenyl]-3,4,5,6-tetrahydro-2H-1,3-oxazin-2-one]	8300 nM
COc1ccc(C2(c3ccccn3)CCNC(=O)O2)cc1OC1CCCC1 (centres unmarked) [Compound No. 39, 6-(3-cyclopentyloxy-4-methoxyphenyl)-6-(2-pyridyl)-3,4,5,6-tetrahydro-2H-1,3-oxazin-2-one]	18000 nM
